Assay [1] concerns the target T1, Human prostatic acid phosphatase (obtained commercially) (Homo sapiens, UniProt P15309).
T1 construct: purchased Sigma; host or cells: human semen
Nature of the assay: biochemical. As to conditions: for inhibition at 10000 µM: compound at 10 mM, read-out: % change of activity; for inhibition at 10000 µM / % change of activity: 0.1 mM PNPP, 100 mM acetate pH 5, 30°; for % change of activity: compound at 10 μM. As to the method:
(§1) Human placental alkaline phosphatase and prostatic phosphatase were obtained commercially. Alkaline phosphatase was assayed in a reaction mixture containing 50 mM glycine NaOH, pH 10, MgCl2 and 1 mM PNPP; prostatic acid phosphatase was assayed in a reaction mixture containing 100 mM acetate, pH 5, 0.1 mM PNPP, and purified phosphotyrosyl protein phosphatase was assayed in 100 mM acetate, pH 5, 0.8 mM PNPP, 0.2 mg/ml BSA and 5 mM DTT. All assays were performed at 30°.
(§2) p-Nitrophenylphosphatase activity was determined in a final volume of […] containing 100 mM acetate, pH 5, 5 mM DTT, 2.5 mg/ml BSA and 1 mM PNPP. The reaction was carried out at 30° C. and terminated with 0.5 ml of 0.2N NaOH. Alkaline PNPP phosphatase activity was similarly determined except that 50 mM glycine NaOH, pH 10, was used as buffer and 10 mM MgCl2 was included in the reaction mixture. Absorption at 410 nm wavelength was recorded on a Gilson spectrophotometer. Units of phosphatase activity were calculated with a millimolar extinction coefficient of 17.5 for p-nitrophenol at 410 nm and pH 11.

The target in assay [2] is T2, Human placental alkaline phosphatase (obtained commercially) (Homo sapiens, UniProt P05187).
T2 construct: purchased Worthington Biochem; host or cells: human placenta
T2 sequence (P05187 23-506 limits assumed): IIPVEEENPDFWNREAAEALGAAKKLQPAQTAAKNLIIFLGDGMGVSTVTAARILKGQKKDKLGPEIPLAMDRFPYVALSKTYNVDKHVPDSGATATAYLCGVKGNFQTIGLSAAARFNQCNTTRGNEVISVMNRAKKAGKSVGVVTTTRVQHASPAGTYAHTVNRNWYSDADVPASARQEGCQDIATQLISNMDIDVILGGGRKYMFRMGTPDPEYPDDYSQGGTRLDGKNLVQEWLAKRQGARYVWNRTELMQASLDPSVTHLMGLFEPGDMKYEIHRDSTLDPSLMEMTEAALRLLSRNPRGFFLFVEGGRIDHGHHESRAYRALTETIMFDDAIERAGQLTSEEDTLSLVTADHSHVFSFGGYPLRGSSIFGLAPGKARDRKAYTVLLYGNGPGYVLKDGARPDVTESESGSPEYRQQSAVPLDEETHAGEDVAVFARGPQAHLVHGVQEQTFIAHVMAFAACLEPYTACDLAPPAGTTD
As to the kind of experiment: biochemical. As to conditions: for inhibition at 10000 µM: compound at 10 mM, read-out: % change of activity; for inhibition at 10000 µM / % change of activity: 1 mM PNPP, glycine NaOH pH 10, MgCl2, 30°; for % change of activity: compound at 10 μM. The method, then: as §1, §2

Assay [3] relates to Purified phosphotyrosyl protein phosphatase from human placental membranes. Type of assay: biochemical. The method, then:
Phosphotyrosine phosphatase activity was measured by the release of ^32 Pi from ^32 P-Tyr-angiotensin II in a […] reaction mixture containing 0.1M acetate, pH 5, 5 mM DTT, 2.5 mg/ml BSA and 0.05 mM ^32 Pi of ^32 P-Tyr-angiotensin II. After incubation at 30° for 30 minutes, the reaction was terminated by the addition of […] of 10% TCA. 0.2 ml of 1.25 mM KH2 PO4 in 1N H2 SO4 was added as carrier. 0.1 ml of 5% ammonium molybdate was then added. After extraction with 0.5 ml of 1:1 isobutanol:benzene, 0.25 ml of the upper phase was taken and mixed with 10 ml Aquasol II to be counted in a packard scintillation counter.

Assay [4] shares this test system. Type of assay: biochemical. The method, then:
as §1, §2
This is another data set of the same source.

Where [5] appears, read: compound at 10 mM, 0.8 mM PNPP, 100 mM acetate pH 5, 0.2 mg/ml BSA, 5 mM DTT, 30°.
Setting [6] is: pH 5, read-out: % change of activity.
[7] abbreviates: pH 10, read-out: % change of activity.
Setting [8] is: compound at 10 μM, 0.8 mM PNPP, 100 mM acetate pH 5, 0.2 mg/ml BSA, 5 mM DTT, 30°.

Where two headings read alike, the source gives them in different places.

These results are taken from patent US4710469A, “Novel phosphotyrosyl protein phosphatase” (Merck & Co., Inc., priority 1986, dated 1987).

T1 sequence (P15309 33-386): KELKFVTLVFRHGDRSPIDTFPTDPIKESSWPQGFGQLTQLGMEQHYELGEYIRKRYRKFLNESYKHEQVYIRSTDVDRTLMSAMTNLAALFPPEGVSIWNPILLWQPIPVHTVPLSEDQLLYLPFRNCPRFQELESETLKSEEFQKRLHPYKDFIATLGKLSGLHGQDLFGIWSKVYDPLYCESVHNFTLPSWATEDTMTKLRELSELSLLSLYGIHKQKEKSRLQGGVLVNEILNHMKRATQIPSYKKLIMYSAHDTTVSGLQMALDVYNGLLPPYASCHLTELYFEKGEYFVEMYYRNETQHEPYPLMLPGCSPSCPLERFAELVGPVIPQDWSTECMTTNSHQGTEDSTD

For `N[C@@H](Cc1ccc(OP(=O)(O)O)cc1)C(=O)O` [p-tyrosine, phosphotyrosine], the inhibition at 10000 µM is 24.4% in assay [1] and 85.6% in assay [2]. Also, in assay [3] (compound at 10 mM), the “inhibition of 32P-Tyr-angiotensin II phosphatase activity” value is recorded as 11.5%. Besides, the “% change of activity” value in assay [4] (setting [5]) is reported as -21.6%. Besides, the “effect on PNPP phosphatase activity” value in assay [4] (concentration not given) is “slightly inhibited”.

`O=C(O)[C@H](O)[C@@H](O)C(=O)O` [L-tartrate]: the results for the inhibition at 5000 µM in assay [1] (setting [6]) and in assay [2] (setting [7]) were 97.6% and 10.4%, respectively. The “inhibition of 32P-Tyr-angiotensin II phosphatase activity” value in assay [3] was determined as 27.6%. In addition, the “effect on PNPP phosphatase activity” value in assay [4] is “nearly completely inhibited”. The “% change of activity” value in assay [4] (purified phosphotyrosyl protein phosphatase, pH 5, 5000 µM) is recorded as -98.1%.

Turning to `O=C(O)CN(CCN(CC(=O)O)CC(=O)O)CC(=O)O` [EDTA, Ethylene diamine tetraacetate], the “effect on PNPP phosphatase activity” value in assay [1] is “not affected”. For the same molecule, the results for the inhibition at 20000 µM in assay [1] (setting [6]) and in assay [2] (setting [7]) were 2.2% and 94%, respectively. Moreover, the “stimulation of 32P-Tyr-angiotensin II phosphatase activity” value in assay [3] was 29.8%. Moreover, the “stimulation of PNPP phosphatase activity” value in assay [4] is 79%. Besides, the “% change of activity” value in assay [4] (purified phosphotyrosyl protein phosphatase, pH 5, 20000 µM) is “+78.9%”.

Regarding `N[C@@H](COP(=O)(O)O)C(=O)O` [p-serine, phosphoserine], the inhibition at 10000 µM was determined as 19% in assay [1] and 92.6% in assay [2]. Also, in assay [1] (concentration not given), the “effect on PNPP phosphatase activity” value is “slightly inhibited”. In addition, in assay [3] (compound at 10 mM), the “stimulation of 32P-Tyr-angiotensin II phosphatase activity” value turned out to be 4.3%. Also, the “% change of activity” value in assay [4] (setting [5]) was “+73.4%”. The “stimulation of PNPP phosphatase activity” value in assay [4] (text summary of Table I, phosphoserine 10 mM per table) was determined as 73%.

For the molecule molybdate, the entries for the “% change of activity” value in assay [1], in assay [2] and in assay [4] (setting [8]) were -95.0%, 0% and -96.4%, respectively. Moreover, in assay [3] (compound at 10 μM), the “inhibition of 32P-Tyr-angiotensin II phosphatase activity” value was 20.8%. Also, in assay [4] (compound at 10 μM), the “effect on PNPP phosphatase activity” value was “nearly completely inhibited”.

For `[O]=[V]([O-])([O-])[O-]` [vanadate], the “% change of activity” value in assay [1] is reported as -87.8%; in assay [2], -18.3%; in assay [4] (setting [8]), -38.2%. Further, the “inhibition of 32P-Tyr-angiotensin II phosphatase activity” value in assay [3] (compound at 10 μM) came out at 46.4%. Moreover, the “effect on PNPP phosphatase activity” value in assay [4] (compound at 100 μM) is listed as “nearly completely inhibited”.
